In PMC8197230, “Orientated Immobilization of FAD-Dependent Glucose Dehydrogenase on Electrode by Carbohydrate-Binding Module Fusion for Efficient Glucose Assay” (International Journal of Molecular Sciences, 2021) one finds Km data, which are given here for one compound.

Assay [1] relates to T1, GDH (wild-type FAD-GDH).
T1 construct: signal peptide (first 63 bp, 21 residues) removed; C-terminal His tag kept; secreted from Pichia pastoris GS115 (pPIC9k), glycosylated; Ni-purified
In words: PMS/DCIP spectrophotometric assay at […] nm, Michaelis-Menten non-linear fit. Type of assay: biochemical, Aspergillus niger. As to conditions: 0.1 M phosphate buffer pH 6.0, 37 °C; PMS and DCIP as electron acceptors; free enzyme.

Assay [2] relates to T2, GDH-NL-CBM2.
T2 construct: gene FAD-GDH; secreted from Pichia pastoris GS115, Ni-purified
The assay is described as above. In kind it is biochemical, Aspergillus niger. As to conditions: 0.1 M phosphate buffer pH 6.0, 37 °C; PMS and DCIP as electron acceptors; free enzyme.

For orientation: Km means the substrate concentration at which the rate is half of its maximum. With `OC[C@H]1OC(O)[C@H](O)[C@@H](O)[C@@H]1O` (some centres unmarked) [glucose], the figures for the Km in assay [1] and in assay [2] were 12.3 mM and 11.8 mM, respectively.
